Test results from publication PMC4506092, “Utilizing Chemical Genomics to Identify Cytochrome b as a Novel Drug Target for Chagas Disease” (PLoS Pathogens, 2015).
“And” between values parts separate entries of the source, which are not always exact repeats. Identical values can stand only once. Like-named read-outs stand apart in the source and are kept apart here.

What was measured:
[1] = test system: T. cruzi epimastigotes (wild-type); assay: T. cruzi epimastigote growth assay (CellTiter-Glo), wild-type; format: cell-based, Trypanosoma cruzi; details: for EC50: wild-type T. cruzi, seven days, read-out: Epimastigote EC50, WT
Procedure: (§1) To determine compound activity on the T. cruzi epimastigote form, epimastigotes (20 μL; 2.5 × 10^5 parasites / mL) were added to 384-well assay plates containing 20 μL of LIT media with pre-dispensed compounds (0.2% DMSO final concentration) and incubated for seven days at 26°C / 0% CO2. Parasite viability was assessed at the end of this incubation period using the CellTiter-Glo Luminescent Cell Viability Assay (Promega). Luminescence as a measure of parasite viability was measured on the EnVision plate reader.

[2] = test system: T. cruzi epimastigotes (GNF7686-resistant, DR); assay: T. cruzi epimastigote growth assay (CellTiter-Glo), GNF7686-resistant; format: cell-based, Trypanosoma cruzi
Procedure: as §1
Resistant epimastigotes were cloned by the limiting dilution technique.

[3] = test system: T. cruzi trypomastigotes (wild-type); assay: T. cruzi trypomastigote viability assay (CellTiter-Glo), wild-type; format: cell-based, Trypanosoma cruzi; details: 48-hour incubation, read-out: Trypomastigote EC50, WT
Procedure: (§2) To assess compound efficacy on trypomastigotes, parasites (30 μL; 2 × 10^6 trypomastigotes / mL) were added to 384-well plates containing 10 μL of RPMI-1640 without phenol red (Invitrogen) and supplemented with 10% FBS and 100 IU penicillin / 100 µg streptomycin per mL, and then treated with compounds (0.2% DMSO final concentration). Following a 48-hour incubation period, viability was assessed using the CellTiter-Glo Luminescent Cell Viability Assay (Promega).

[4] = test system: T. cruzi trypomastigotes (GNF7686-resistant, DR); assay: T. cruzi trypomastigote viability assay (CellTiter-Glo), GNF7686-resistant; format: cell-based, Trypanosoma cruzi; details: for EC50: GNF7686-resistant T. cruzi, 48-hour incubation
Procedure: as §2

[5] = test system: L. donovani axenic amastigotes; assay: Leishmania donovani axenic amastigote in vitro efficacy assay; format: cell-based; details: 48 hours
Procedure: Leishmania donovani (L. donovani) axenic amastigotes (strain MHOM/SD/62/1S-CL2D) were maintained at 37°C / 5% CO2 in RPMI-1640 medium containing 4 mM L-glutamine, 20% heat inactivated FBS, 100 IU penicillin / 100 μg streptomycin per mL, 23 μM folic acid, 100 µM adenosine, 22 mM D-glucose, and 25 mM 2-(N-morpholino)ethanesulfonic acid (pH 5.5 adjusted at 37°C using 1M HCl).
For compound screening, axenic amastigotes were seeded into 384-well plates containing axenic amastigote medium with pre-dispensed compounds (0.25% final DMSO concentration) at a density of 9,600 cells / well. Plates were incubated for 48 hours at 37°C / 5% CO2. Cell viability was assessed using the CellTiter-Glo Luminescent Cell Viability Assay (Promega).

[6] = test system: L. donovani promastigotes; assay: Leishmania donovani promastigote proliferation assay; format: cell-based
[7] = test system: T. b. brucei bloodstream form; assay: T. b. brucei bloodstream form in vitro efficacy assay; format: cell-based, Trypanosoma brucei brucei; details: 48 hours, read-out: T. b. Brucei EC50, BSF
Procedure: Trypanosoma brucei brucei (T. b. brucei) bloodstream form (strain Lister 427) was maintained in HMI-9 medium: IMDM (Iscove's Modified Dulbecco's Media), 10% heat-inactivated FBS, 10% Serum Plus medium supplement (SAFC biosciences), 1 mM hypoxanthine, 50 μM bathocuproine disulfonate.Na2, 1.5 mM cysteine, 1 mM pyruvate, 39 μg/mL thymidine, and 0.2 mM 2-mercapthoethanol) at 37°C / 5% CO2.
For compound screening, parasites were seeded into 384-well assay plates containing HMI-9 with pre-dispensed compounds (0.25% final DMSO concentration) at a density of 6,000 cells / well, and plates were then incubated for 48 hours at 37°C / 5% CO2. Cell viability was assessed using the CellTiter-Glo Luminescent Cell Viability Assay (Promega).

P. falciparum D10attB = assay: P. falciparum SYBR Green proliferation assay, D10attB line; format: cell-based, Plasmodium falciparum
Procedure: (§3) GNF7686 and cytochrome b inhibitors were assayed for activity on two Plasmodium falciparum (P. falciparum) lines: D10attB and yDHODH-D10attB. The D10attB line is reliant on the coenzyme Q-dependent malarial dihydroorotate dehydrogenase (PfDHODH), whereas the yDHODH-D10attB line expresses also the fumarate-utilizing Saccharomyces cerevisiae (S. cerevisiae) DHODH, which circumvents reliance on PfDHODH and renders this line fully resistant to cytochrome b inhibitors. The use of these two lines allows for distinction of selection of potent cytochrome b inhibitors as described in detail in the Results section. Growth and viability of P. falciparum cell lines (in the presence or absence of drug) in infected erythrocytes were assessed using a SYBR Green-based proliferation assay exactly as described previously.

[8] = test system: P. falciparum yDHODH-D10attB; assay: P. falciparum SYBR Green proliferation assay, yDHODH-D10attB line; format: cell-based, Plasmodium falciparum
Procedure: as §3

[9] = test system: S. cerevisiae strain NF7061; assay: S. cerevisiae susceptibility assay, YPG (glycerol) medium; format: cell-based, Saccharomyces cerevisiae; details: 48 hours
Procedure: The minimal inhibitory concentrations (MIC) of the compounds for inhibition of S. cerevisiae drug pump knock-out strain NF7061 (MATa his3Δ 1; leu2Δ 0; met15Δ 0; ura3Δ 0; snq2::KanMX; pdr5::KanMX; pdr1::NAT1; pdr3::KanMX; yap1::NAT1; pdr2::LEU2; yrm1::MET; yor1::LYS2) were determined by a modification of the microdilution technique described elsewhere. Briefly, two-fold dilutions of the compound solution in DMSO were made. They were added to each well of 96-well assay plate containing 200 μL per well of either YPD (1% Difco Yeast Extract, 2% Difco Bacto Peptone and 2% Dextrose) or YPG (3% of glycerol in replacement of 2% Dextrose in YP) medium. Early stationary yeast NF7061 cells grown in either medium were collected and resuspended to 2 × 10^5 cells / mL. Ten microliters of the yeast cell suspension were inoculated to each well of the plates containing medium and compound to achieve a final inoculum of approximately 10^4 CFU / mL. The plates were incubated at 30°C for 24 hours (containing YPD) or 48 hours (containing YPG).

NIH/3T3 fibroblast cells = assay: Mammalian cell cytotoxicity assay (CellTiter-Glo); format: cell-based, mouse; details: for Toxicity on the host 3T3 cells (in words): host cells of the intracellular amastigote assay, prevented determination of amastigote EC50
Procedure: NIH/3T3 fibroblast cells were maintained in RPMI-1640 medium supplemented with 10% heat-inactivated FBS and 100 IU penicillin / 100 μg streptomycin per mL at 37°C / 5% CO2. For compound screening, cells were diluted to 4 × 10^4 cells / mL in assay medium (RPMI-1640, 5% FBS, and 100 IU penicillin / 100 μg streptomycin per mL) and seeded at 50 μL / well into 384-well plates. Following overnight incubation, compounds were added to each well (0.2% DMSO final concentration) and plates were further incubated for 96 hours. Cell viability was assessed using the CellTiter-Glo Luminescent Cell Viability Assay (Promega). Measured luminescence values were normalized to the value obtained for 0.2% DMSO, and plotted against the corresponding compound concentration for half maximal cytotoxic concentration (CC50) value determination.

[10] = Trypanosoma cruzi, 168 h, GNF7686-resistant T. cruzi culture, seven days, read-out: Epimastigote EC50, DR
[11] = Saccharomyces cerevisiae, NF7061, MIC visual growth inhibition screen
[12] = Plasmodium falciparum; read-out: P. falciparum EC50, D10attB
[13] = Plasmodium falciparum; read-out: P. falciparum EC50, yDHODH-D10attB

SMILES	EC50 ([1]; Trypanosoma cruzi, 168 h) [nM]	Shift of epimastigote EC50, GNF7686-resistant vs wild-type [2]	EC50 [2, 10] [nM]	EC50 ([3]; Trypanosoma cruzi) [nM]	EC50 ([4]; Trypanosoma cruzi) [nM]	EC50 ([5]; Leishmania donovani) [nM]	EC50 ([6]; Leishmania donovani) [nM]	EC50 ([7]; Trypanosoma brucei) [nM]	EC50 [9, 11] [nM]	Toxicity on the host 3T3 cells (in words) (NIH/3T3 fibroblast cells)	EC50 (P. falciparum D10attB; [12]) [nM]	EC50 [8, 13] [nM]	further results
CCCCCC[C@H]1C(=O)O[C@H](C)[C@H](NC(=O)c2cccc(NC=O)c2O)C(=O)O[C@@H](C)[C@@H]1OC(=O)CC(C)C [Antimycin A]	46 ± 10	40 fold	1800 ± 210	200 ± 40	4300 ± 1300	10 ± 4	10 ± 3	> 25000	< 2	toxicity			Shift of trypomastigote potency, mutant vs wild-type [4]: 20 fold; EC50 (P. falciparum D10attB; Plasmodium falciparum, read-out: P. falciparum EC50, D10attB): 700 ± 340 nM; EC50 ([8]; Plasmodium falciparum, read-out: P. falciparum EC50, yDHODH-D10attB): > 12500 nM
O=C(Cn1ccnc1[N+](=O)[O-])NCc1ccccc1 [Benznidazole]	5500 ± 150		6700 ± 600	13000 ± 1800	11000 ± 580	> 25000	> 25000	> 25000	> 40000		> 12500	> 12500	
CCc1c(C)c(C#N)c2nc3ccccc3n2c1O [GNF7686]	160 ± 20	~ 5 fold and ~ 4 fold	730 ± 40	710 ± 160	4500 ± 840	460 ± 280	460 ± 120	> 25000	5000		> 12500	> 12500	EC20 value on T. cruzi epimastigotes ([1]; starting concentration of resistance selection): 10 nM; EC50 ([2]; Trypanosoma cruzi, epimastigote clones, read-out: EC50 of three clones isolated from the GNF7686-resistant culture): ~1000 nM; Mammalian cell proliferation: no effect observed up to (NIH/3T3 fibroblast cells; mouse): > 25 µM
CO/C(=C/C(N)=O)[C@H](C)[C@H](/C=C/c1csc(-c2csc([C@@H](C)/C=C/C=C/C(C)C)n2)n1)OC [Myxothiazol]										toxicity			EC50 [1]: 490 ± 50 nM; EC50 ([2]; GNF7686-resistant T. cruzi culture, seven days, read-out: Epimastigote EC50, DR): 430 ± 80 nM; EC50 [3]: 2900 ± 480 nM; EC50 [4]: 2900 ± 430 nM; EC50 [5]: 9600 ± 3900 nM; EC50 [6]: 3100 ± 450 nM; EC50 [7]: 17200 ± 3100 nM; EC50 (P. falciparum D10attB; read-out: P. falciparum EC50, D10attB): 300 ± 10 nM; EC50 ([8]; read-out: P. falciparum EC50, yDHODH-D10attB): 8400 ± 1600 nM; EC50 ([9]; MIC visual growth inhibition screen): 70 ± 10 nM
CO\C=C(C(=O)OC)/C(C)=C\C=C\c1ccccc1 [Strobilurin]	590 ± 130		340 ± 10	1700 ± 410	1400 ± 360	9100 ± 2500	4300 ± 820	> 25000	100 ± 20	toxicity	460 ± 270	> 12500	
